Reference: US20250296971A1, “GASTRIC INHIBITORY PEPTIDE RECEPTOR LIGANDS” (priority 2021, published 2025)
*1 amine or outer side, *2 acyl side, *3 side chain or, on linkers, in order; H or OH if unused. Where a SMILES comes first, the peptide text is derived from it. Bridges are numbered along the chain shown (N, C = ends). [ ]: non-standard residue; d: D form. The star is where a group is joined. X11 = O=C(CN1CCN2CCN3CCN(CC1)CC(=O)[O][In]([O]C(=O)C2)[O]C(=O)C3)NCCCOCCOCCOCCCN*; NH(CH2)5NHDOTA = O=C(O)CN1CCN(CC(=O)O)CCN(CC(=O)NCCCCCN*)CCN(CC(=O)O)CC1; DOTA(In) = O=C1CN2CCN3CCN(CC(=O)*)CCN(CC2)CC(=O)[O][In]([O]1)[O]C(=O)C3; X3 = O=C(O)CN1CCN(CC(=O)O)CCN(CC(=O)NCCCOCCOCCOCCCN*)CCN(CC(=O)O)CC1; NH(1-deoxy-D-glucityl) = OC[C@@H](O)[C@@H](O)[C@H](O)[C@@H](O)CN*; X8 = O=C(O)CN1CCN(CC(=O)O)CCN(CC(=O)N2CCN(*)CC2)CCN(CC(=O)O)CC1; Pro(trans-4-NH2) = O=C([C@@H]1C[C@@H](N[*:3])CN1[*:1])[*:2]; DOTA = O=C(O)CN1CCN(CC(=O)O)CCN(CC(=O)*)CCN(CC(=O)O)CC1; Trp(5-Cl) = N[C@@H](Cc1c[nH]c2ccc(Cl)cc12)C(=O)O; Pyridine(2,6-diCH2) = c1cc(C[*:1])nc(C[*:2])c1; Glutaryl = O=C(CCCC(=O)[*:2])[*:1]; X6 = c1cc(CSCCN[*:2])nc(C[*:1])c1; X7 = c1cc(CSCCN[*:2])cc(C[*:1])c1; Hyp = O=C(O)[C@@H]1C[C@@H](O)CN1; Suc = O=C(CCC(=O)[*:2])[*:1]; Api = NC1(C(=O)O)CCNCC1; Thp = NC1(C(=O)O)CCOCC1; Aib = CC(C)(N)C(=O)O

Assays:
[1] = biological target: T1, GIPR (CHO-K1-hGIPR cells) (Homo sapiens, UniProt P48546); assay: FACS binding assay; conditions: competition with 20 nM GIP-057, 4° C., 1 hour, read-out: pIC50 Category (converted)
T1 construct: host or cells: CHO-K1
T1 sequence (P48546 22-466): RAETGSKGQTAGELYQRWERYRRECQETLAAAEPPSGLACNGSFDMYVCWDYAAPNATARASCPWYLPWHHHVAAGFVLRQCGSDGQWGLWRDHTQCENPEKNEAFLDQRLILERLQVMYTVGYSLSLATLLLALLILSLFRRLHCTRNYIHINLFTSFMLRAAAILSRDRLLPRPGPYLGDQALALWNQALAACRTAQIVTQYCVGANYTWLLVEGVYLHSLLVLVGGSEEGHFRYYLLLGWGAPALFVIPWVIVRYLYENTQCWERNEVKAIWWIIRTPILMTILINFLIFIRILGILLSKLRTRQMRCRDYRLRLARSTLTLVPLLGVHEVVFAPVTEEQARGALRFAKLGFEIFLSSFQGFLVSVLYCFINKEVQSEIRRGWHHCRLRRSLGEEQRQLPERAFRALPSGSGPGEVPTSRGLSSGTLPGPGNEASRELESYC
Outline: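 Read-out: flow cytometric median fluorescence intensity, APC/Cy5 channel, plotted vs peptide conc.; 4PL fit → EC50/pEC50 or IC50/pIC50. Cells: CHO-K1-hGIPR, Accutase-detached, 500.000/mL in PBS + 1% FCS. Detection: APC-streptavidin 1 μg/mL, 30 min, on ice.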

[2] = biological target: T2, human GIP receptor (bioGIPR) (Homo sapiens, UniProt P48546); assay: Surface plasmon resonance (SPR) based binding assay; conditions: Single Cycle Kinetic mode, 25° C.; for t1/2 Category: SPR dissociation half-life; for Kd: SPR, 1:1 Langmuir binding model, read-out: pKD Category (converted)
T2 construct: Biotinylate extracellular of the human GIP receptor (bioGIPR, Proteros biostructures GmbH, lot #02/2b); purchased Proteros biostructures GmbH lot #02/2b
T2 sequence (P48546 22-138 limits assumed): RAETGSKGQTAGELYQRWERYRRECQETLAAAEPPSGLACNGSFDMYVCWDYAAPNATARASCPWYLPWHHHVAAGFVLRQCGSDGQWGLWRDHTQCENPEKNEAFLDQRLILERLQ
Outline: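 Binding was measured at 25 °C by single-cycle kinetics against a reference flow cell, with blank-run and drift correction, after capturing biotinylated GIPR extracellular domain to ~3500 RU. Running buffer: HBST, 0.1% DMSO. A 1:1 Langmuir model gave kinetic rates, KD, t1/2 and pKD.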

Row | IC50 [1] [nM] | t1/2 Category [2] | Kd [2] [nM] | Compound
1 | < 10 | A (t1/2 values>15 min) | < 1 | CC[C@H](C)[C@@H]1NC(=O)[C@H](CC(C)C)NC(=O)C2(CCOCC2)NC(=O)[C@@H](NC(=O)[C@@H](CC(C)C)NC(=O)[C@H](CCC(=O)O)NC(=O)[C@@H]2C[C@@H](O)CN2C(=O)[C@H](Cc2c[nH]c3ccc(Cl)cc23)NC(=O)[C@H](Cc2c[nH]c3ccccc23)NC(=O)CCC(=O)O)CSCc2cccc(n2)CSC[C@@H](C(=O)NCCCCCNC(=O)CN2CCN(CC(=O)O)CCN(CC(=O)O)CCN(CC(=O)O)CC2)NC1=O [GIP-117, HO-Succinyl-Trp-5Clw-Hyp-Glu-leu-[Cys(2Lut)-Thp-Leu-Ile-Cys]-Ape-DOTA] (Suc-W[Trp(5-Cl)][Hyp]E[dL]C[Thp]LIC-{NH(CH2)5NHDOTA}; linker 6-10 via Pyridine(2,6-diCH2))
2 | < 10 | A (t1/2 values>15 min) | < 1 | CC[C@H](C)[C@@H]1NC(=O)[C@H](CC(C)C)NC(=O)C2(CCOCC2)NC(=O)[C@@H](NC(=O)[C@@H](CC(C)C)NC(=O)[C@H](CCC(=O)O)NC(=O)[C@@H]2C[C@@H](O)CN2C(=O)[C@H](Cc2c[nH]c3ccc(Cl)cc23)NC(=O)[C@H](Cc2c[nH]c3ccccc23)NC(=O)CCC(=O)O)CSCc2cccc(n2)CSC[C@@H](C(=O)N2CCN(C(=O)CN3CCN(CC(=O)O)CCN(CC(=O)O)CCN(CC(=O)O)CC3)CC2)NC1=O [GIP-118, HO-Succinyl-Trp-5Clw-Hyp-Glu-leu-[Cys(2Lut)-Thp-Leu-Ile-Cys]-PP-DOTA] (Suc-W[Trp(5-Cl)][Hyp]E[dL]C[Thp]LIC-X8; linker 6-10 via Pyridine(2,6-diCH2))
3 | < 10 | A (t1/2 values>15 min) | < 1 | CC[C@H](C)[C@@H]1NC(=O)[C@H](CC(C)C)NC(=O)C2(CCNCC2)NC(=O)[C@@H](NC(=O)[C@@H](CC(C)C)NC(=O)[C@H](CCC(=O)O)NC(=O)[C@@H]2CCCN2C(=O)[C@H](Cc2c[nH]c3ccc(Cl)cc23)NC(=O)[C@H](Cc2c[nH]c3ccccc23)NC(=O)[C@H](CC(=O)O)NC(=O)CCC(=O)NCCCOCCOCCOCCCNC(=O)CN2CCN(CC(=O)O)CCN(CC(=O)O)CCN(CC(=O)O)CC2)CSCc2cccc(n2)CSCCNC1=O [GIP-119, DOTA-Ttds-Asp-Trp-5Clw-Pro-Glu-leu-[Cys(2Lut)-Apc-Leu-Ile-AET]] ({X3-Suc}-DW[Trp(5-Cl)]PE[dL]C[Api]LI; linker 7-C via X6)
4 | < 10 | A (t1/2 values>15 min) | < 1 | CC[C@H](C)[C@@H]1NC(=O)[C@H](CC(C)C)NC(=O)C2(CCOCC2)NC(=O)[C@@H](NC(=O)[C@@H](CC(C)C)NC(=O)[C@H](CCC(=O)O)NC(=O)[C@@H]2C[C@@H](NC(=O)CN3CCN(CC(=O)O)CCN(CC(=O)O)CCN(CC(=O)O)CC3)CN2C(=O)[C@H](Cc2c[nH]c3ccc(Cl)cc23)NC(=O)[C@H](Cc2c[nH]c3ccccc23)NC(=O)[C@H](CC(=O)O)NC(C)=O)CSCc2cccc(n2)CSC[C@@H](C(N)=O)NC1=O [GIP-121, Ac-Asp-Trp-5Clw-Tap(DOTA)-Glu-leu-[Cys(2Lut)-Thp-Leu-Ile-Cys]-NH2] (Ac-DW[Trp(5-Cl)][Pro(trans-4-NH2)](DOTA)E[dL]C[Thp]LIC-NH2; linker 7-11 via Pyridine(2,6-diCH2))

Row | Compound | IC50 [1] [nM] | t1/2 Category [2] | Kd [2] [nM]
5 | CC[C@H](C)[C@@H]1NC(=O)[C@H](CC(C)C)NC(=O)C2(CCN(C(=O)CN3CCN4CCN5CCN(CC3)CC(=O)[O][In]([O]C(=O)C5)[O]C(=O)C4)CC2)NC(=O)[C@@H](NC(=O)[C@@H](CC(C)C)NC(=O)[C@H](CCC(=O)O)NC(=O)[C@@H]2C[C@@H](O)CN2C(=O)[C@H](Cc2c[nH]c3ccc(Cl)cc23)NC(=O)[C@H](Cc2c[nH]c3ccccc23)NC(=O)[C@H](CC(=O)O)NC(=O)CCCC(=O)NC[C@H](O)[C@@H](O)[C@H](O)[C@H](O)CO)CSCc2cccc(n2)CSCCNC1=O [GIP-146, AGLU-Glutar-Asp-Trp-5Clw-Hyp-Glu-leu-[Cys(2Lut)-Apc(InDOTA)-Leu-Ile-AET]] ({NH(1-deoxy-D-glucityl)-Glutaryl}-DW[Trp(5-Cl)][Hyp]E[dL]C[Api](DOTA(In))LI; linker 7-C via X6) | < 10 |  | < 1
6 | CC[C@H](C)[C@@H]1NC(=O)[C@H](CC(C)C)NC(=O)C(C)(C)NC(=O)[C@@H](NC(=O)[C@@H](CC(C)C)NC(=O)[C@H](CCC(=O)O)NC(=O)[C@@H]2C[C@@H](O)CN2C(=O)[C@H](Cc2c[nH]c3ccc(Cl)cc23)NC(=O)[C@H](Cc2c[nH]c3ccccc23)NC(=O)[C@H](CC(=O)O)NC(=O)CCC(=O)NCCCOCCOCCOCCCNC(=O)CN2CCN3CCN4CCN(CC2)CC(=O)[O][In]([O]C(=O)C3)[O]C(=O)C4)CSCc2cccc(c2)CSCCNC1=O [GIP-151, InDOTA-Ttds-Asp-Trp-5Clw-Hyp-Glu-leu-[Cys(3MeBn)-Aib-Leu-Ile-AET]] ({X11-Suc}-DW[Trp(5-Cl)][Hyp]E[dL]C[Aib]LI; linker 7-C via X7) | < 10 | A (t1/2 values>15 min) | < 1
